Results reported in PubChem BioAssay AID256 (DTP/NCI, 2004).
“And” between values parts separate entries of the source, which are not always exact repeats. Equal entries are not always repeated. Toxic doses and inconclusive results are not listed.

Test system: CD2F1 mice, L1210 leukemia ip, survival T/C
Test: NCI In Vivo Anticancer Drug Screen. Data for tumor model L1210 Leukemia (intraperitoneal) in CD2F1 (CDF1) mice
Details: higher = longer survival
Outline: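 Antitumor effect is scored in animals hosting a serially transplanted tumor. Values compare compound-dosed animals against vehicle-only controls as a simple quotient.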

[1] = endpoint: mean survival time, dose: 100.0 mg/kg/injection, schedule: Q01DX009 (ip), vehicle: saline with Tween-80
[2] = endpoint: mean survival time, dose: 200.0 mg/kg/injection, schedule: Q01DX009 (ip), vehicle: saline with Tween-80
[3] = endpoint: mean survival time, dose: 100.0 mg/kg/injection, schedule: Q01DX001 (ip), vehicle: saline
[4] = endpoint: mean survival time, dose: 100.0 mg/kg/injection, schedule: Q01DX009 (ip), vehicle: saline
[5] = endpoint: mean survival time, dose: 200.0 mg/kg/injection, schedule: Q01DX001 (ip), vehicle: saline
[6] = endpoint: mean survival time, dose: 400.0 mg/kg/injection, schedule: Q01DX001 (ip), vehicle: saline
[7] = endpoint: mean survival time, dose: 100.0 mg/kg/injection, schedule: Q04DX003 (ip), vehicle: saline with Tween-80
[8] = endpoint: mean survival time, dose: 200.0 mg/kg/injection, schedule: Q04DX003 (ip), vehicle: saline with Tween-80
[9] = endpoint: mean survival time, dose: 400.0 mg/kg/injection, schedule: Q04DX003 (ip), vehicle: saline with Tween-80
[10] = endpoint: mean survival time, dose: 100.0 mg/kg/injection, schedule: Q01DX001 (ip), vehicle: saline with Tween-80
[11] = endpoint: mean survival time, dose: 400.0 mg/kg/injection, schedule: Q01DX009 (ip), vehicle: saline with Tween-80

With `Nc1nc2ncc(CSc3ccc(C(=O)NC(CCC(=O)O)C(=O)O)cc3)nc2c(=O)[nH]1` (centres undefined) the T/C (endpoint: mean survival time, dose: 1.0 mg/kg/injection, schedule: Q01DX009 (ip), vehicle: sodium bicarbonate) was 107 % of control, the T/C (endpoint: mean survival time, dose: 2.0 mg/kg/injection, schedule: Q01DX009 (ip), vehicle: saline with Tween-80) was 101 % of control and the T/C (endpoint: mean survival time, dose: 2.0 mg/kg/injection, schedule: Q01DX009 (ip), vehicle: sodium bicarbonate) was 111 % of control. The T/C (endpoint: mean survival time, dose: 4.0 mg/kg/injection, schedule: Q01DX009 (ip), vehicle: saline with Tween-80) was 101 % of control, the T/C (endpoint: mean survival time, dose: 4.0 mg/kg/injection, schedule: Q01DX009 (ip), vehicle: sodium bicarbonate) was 124 % of control and the T/C (endpoint: mean survival time, dose: 5.4 mg/kg/injection, schedule: Q01DX009 (ip), vehicle: sodium bicarbonate) was 90 % of control. The T/C (endpoint: mean survival time, dose: 8.0 mg/kg/injection, schedule: Q01DX009 (ip), vehicle: saline with Tween-80) was 104 % of control, the T/C (endpoint: mean survival time, dose: 8.0 mg/kg/injection, schedule: Q01DX009 (ip), vehicle: sodium bicarbonate) was 97 % of control and the T/C (endpoint: mean survival time, dose: 12.0 mg/kg/injection, schedule: Q01DX009 (ip), vehicle: sodium bicarbonate) was 95 % of control. The T/C (endpoint: mean survival time, dose: 16.0 mg/kg/injection, schedule: Q01DX009 (ip), vehicle: saline with Tween-80) was 97 % of control, the T/C (endpoint: mean survival time, dose: 16.0 mg/kg/injection, schedule: Q01DX009 (ip), vehicle: sodium bicarbonate) was 113 % of control and the T/C (endpoint: mean survival time, dose: 32.0 mg/kg/injection, schedule: Q01DX009 (ip), vehicle: saline with Tween-80) was 101 % of control.
For `Cc1cccc(SC(=O)Nc2ccc(Cl)cc2C)c1`, the T/C [1] was 95 % of control and the T/C [2] was 95 % of control.
For `O=C(O)CC1NCCC12OCCO2` (centres undefined), the T/C [3] was 97 % of control, the T/C [4] was 98 % of control and the T/C [5] was 102 % of control. The T/C (endpoint: mean survival time, dose: 200.0 mg/kg/injection, schedule: Q01DX009 (ip), vehicle: saline) was 98 % of control, the T/C [6] was 92 % of control and the T/C (endpoint: mean survival time, dose: 400.0 mg/kg/injection, schedule: Q01DX009 (ip), vehicle: saline) was 101 % of control.
In the case of `CC(=O)Nc1ccc(C(C)=O)cc1`, the T/C [7] was 108 % of control, the T/C [8] was 106 % of control and the T/C [9] was 93 % of control.
For `O=C1OC(C(Cl)(Cl)Cl)OC1C(Cl)(Cl)Cl` (centres undefined), the T/C [10] was 97 % of control.
With `C/C=C/C=C\C=C/C(O)CC(OP(=O)(O)O)C(C)(O)/C=C/C1CC=CC(=O)O1` (centres undefined) the T/C (endpoint: median survival time, dose: 0.38 mg/kg/injection, schedule: Q01DX009 (ip), vehicle: water) was 116 % of control, the T/C (endpoint: median survival time, dose: 1.5 mg/kg/injection, schedule: Q01DX009 (ip), vehicle: water) was 180 % of control and the T/C (endpoint: median survival time, dose: 3.0 mg/kg/injection, schedule: Q01DX009 (ip), vehicle: water) was 153 % of control and 168 % of control. The T/C (endpoint: median survival time, dose: 6.0 mg/kg/injection, schedule: Q01DX009 (ip), vehicle: water) was 120 % of control and 226 % of control.
In the case of `COc1cc([C@@H]2c3cc4c(cc3C[C@H]3COC(=O)[C@@H]32)OCO4)cc(OC)c1OC`, the T/C (endpoint: mean survival time, dose: 6.25 mg/kg/injection, schedule: Q01DX015 (ip), vehicle: saline) was 111 % of control, the T/C (endpoint: mean survival time, dose: 12.5 mg/kg/injection, schedule: Q01DX015 (ip), vehicle: saline) was 118 % of control and the T/C (endpoint: mean survival time, dose: 25.0 mg/kg/injection, schedule: Q01DX015 (ip), vehicle: saline) was 106 % of control.
In the case of `COc1cc2c(cc1OC)C1Cc3ccc4cc(OC)c(OC)cc4c3CN1CC2` (centres undefined), the T/C [4] was 94 % of control, the T/C [7] was 102 % of control and the T/C [8] was 93 % of control. The T/C [9] was 94 % of control.
For `O=NN(CCCCCSCCCl)C(=O)NC1CCCCC1`, the T/C (endpoint: mean survival time, dose: 6.25 mg/kg/injection, schedule: Q01DX001 (ip), vehicle: distilled water + Tween-80) was 101 % of control, the T/C (endpoint: mean survival time, dose: 12.5 mg/kg/injection, schedule: Q01DX001 (ip), vehicle: distilled water + Tween-80) was 101 % of control and the T/C (endpoint: mean survival time, dose: 25.0 mg/kg/injection, schedule: Q01DX001 (ip), vehicle: distilled water + Tween-80) was 107 % of control. The T/C (endpoint: mean survival time, dose: 50.0 mg/kg/injection, schedule: Q01DX001 (ip), vehicle: distilled water + Tween-80) was 104 % of control, the T/C (endpoint: mean survival time, dose: 100.0 mg/kg/injection, schedule: Q01DX001 (ip), vehicle: distilled water + Tween-80) was 104 % of control and the T/C (endpoint: mean survival time, dose: 200.0 mg/kg/injection, schedule: Q01DX001 (ip), vehicle: distilled water + Tween-80) was 108 % of control. For the same molecule, the T/C (endpoint: mean survival time, dose: 400.0 mg/kg/injection, schedule: Q01DX001 (ip), vehicle: distilled water + Tween-80) was 118 % of control.
In the case of `O=c1cc(CCl)nc2c3ncn(C4OC(CO)C(O)C4O)c3ncn12` (centres undefined), the T/C (endpoint: median survival time, dose: 12.5 mg/kg/injection, schedule: Q01DX005 (ip), vehicle: saline with Tween-80) was 105 % of control, the T/C (endpoint: median survival time, dose: 25.0 mg/kg/injection, schedule: Q01DX005 (ip), vehicle: saline with Tween-80) was 102 % of control and the T/C (endpoint: median survival time, dose: 50.0 mg/kg/injection, schedule: Q01DX005 (ip), vehicle: saline with Tween-80) was 98 % of control. The T/C (endpoint: median survival time, dose: 100.0 mg/kg/injection, schedule: Q01DX005 (ip), vehicle: saline with Tween-80) was 95 % of control and the T/C (endpoint: median survival time, dose: 200.0 mg/kg/injection, schedule: Q01DX005 (ip), vehicle: saline with Tween-80) was 98 % of control.
In the case of `CC([NH-])CC[NH-].O=[N+]([O-])O.O=[N+]([O-])O.[Pt+2]` (centres undefined), the T/C (endpoint: mean survival time, dose: 6.25 mg/kg/injection, schedule: Q04DX003 (ip), vehicle: saline with Tween-80) was 169 % of control.
For `Nc1nc(N)c(-c2ccc(Cl)cc2)c(COc2ccc(CCC3(CCl)OCCO3)cc2)n1`, the T/C (endpoint: mean survival time, dose: 25.0 mg/kg/injection, schedule: Q01DX001 (ip), vehicle: saline with Tween-80) was 101 % of control, the T/C (endpoint: mean survival time, dose: 50.0 mg/kg/injection, schedule: Q01DX001 (ip), vehicle: saline with Tween-80) was 101 % of control and the T/C [10] was 108 % of control.
For `CCCC(=O)Nc1ccn(C2OC(CO)C(O)C2O)c(=O)n1` (centres undefined), the T/C (endpoint: mean survival time, dose: 50.0 mg/kg/injection, schedule: Q01DX009 (ip), vehicle: saline with Tween-80) was 98 % of control, the T/C (endpoint: mean survival time, dose: 50.0 mg/kg/injection, schedule: Q04DX002 (ip), vehicle: saline) was 100 % of control and the T/C [1] was 102 % of control. For the same molecule, the T/C (endpoint: mean survival time, dose: 100.0 mg/kg/injection, schedule: Q04DX002 (ip), vehicle: saline) was 97 % of control, the T/C [2] was 102 % of control and the T/C (endpoint: mean survival time, dose: 200.0 mg/kg/injection, schedule: Q04DX002 (ip), vehicle: saline) was 97 % of control. For the same molecule, the T/C [11] was 104 % of control, the T/C (endpoint: mean survival time, dose: 400.0 mg/kg/injection, schedule: Q04DX002 (ip), vehicle: saline) was 97 % of control and the T/C (endpoint: mean survival time, dose: 600.0 mg/kg/injection, schedule: Q04DX002 (ip), vehicle: saline) was 97 % of control.
With `COc1cccc2c1C(=O)c1c(O)c3c(c(O)c1C2=O)C[C@@](O)(/C(C)=N\NC=O)C[C@@H]3OC1CC(N)C(O)C(C)O1` (some centres undefined) the T/C (endpoint: mean survival time, dose: 0.65 mg/kg/injection, schedule: Q01DX009 (ip), vehicle: saline) was 113 % of control, the T/C (endpoint: mean survival time, dose: 1.0 mg/kg/injection, schedule: Q01DX009 (ip), vehicle: saline) was 106 % of control and the T/C (endpoint: mean survival time, dose: 1.08 mg/kg/injection, schedule: Q01DX009 (ip), vehicle: saline) was 118 % of control. The T/C (endpoint: mean survival time, dose: 1.8 mg/kg/injection, schedule: Q01DX009 (ip), vehicle: saline) was 114 % of control, the T/C (endpoint: mean survival time, dose: 2.0 mg/kg/injection, schedule: Q01DX009 (ip), vehicle: saline) was 124 % of control and the T/C (endpoint: mean survival time, dose: 3.0 mg/kg/injection, schedule: Q04DX003 (ip), vehicle: saline) was 123 % of control. For the same molecule, the T/C (endpoint: mean survival time, dose: 4.0 mg/kg/injection, schedule: Q01DX009 (ip), vehicle: saline) was 123 % of control, the T/C (endpoint: mean survival time, dose: 5.0 mg/kg/injection, schedule: Q04DX003 (ip), vehicle: saline) was 120 % of control and the T/C (endpoint: mean survival time, dose: 16.0 mg/kg/injection, schedule: Q01DX009 (ip), vehicle: saline) was 161 % of control. The T/C (endpoint: mean survival time, dose: 22.2 mg/kg/injection, schedule: Q04DX003 (ip), vehicle: saline) was 176 % of control.
For `COc1ccc(C(C#N)Nc2ccccc2)cc1` (centres undefined), the T/C [1] was 106 % of control, the T/C (endpoint: mean survival time, dose: 100.0 mg/kg/injection, schedule: Q04DX003 (ip), vehicle: saline sonified) was 97 % of control and the T/C [2] was 104 % of control. For the same molecule, the T/C (endpoint: mean survival time, dose: 200.0 mg/kg/injection, schedule: Q04DX003 (ip), vehicle: saline sonified) was 89 % of control, the T/C [11] was 103 % of control and the T/C (endpoint: mean survival time, dose: 400.0 mg/kg/injection, schedule: Q04DX003 (ip), vehicle: saline sonified) was 103 % of control.
With `CC(C)C/C(=N\Nc1ccccc1)c1ccccn1` the T/C [3] was 101 % of control, the T/C [5] was 100 % of control and the T/C [6] was 97 % of control.
In the case of `C(/C=C\c1ccccc1)=C(/C=C/c1ccccc1)/C=C/c1ccccc1`, the T/C (endpoint: mean survival time, dose: 200.0 mg/kg/injection, schedule: Q01DX001 (ip), vehicle: saline with Tween-80) was 89 % of control and the T/C (endpoint: mean survival time, dose: 400.0 mg/kg/injection, schedule: Q01DX001 (ip), vehicle: saline with Tween-80) was 89 % of control.
For `Clc1ccc(-c2cc(-c3ccc(Cl)cc3)cc(-c3ccc(Cl)cc3)c2)cc1`, the T/C [1] was 101 % of control, the T/C [2] was 106 % of control and the T/C [11] was 105 % of control.
